{"source": "patent US20060025394A1", "about": "“Estradiol-related compounds and methods of use as anti-tumor agents” (priority 2003, published 2006)", "key": {"[1]": {"tested_on": "DU145, PC3, and LNCaP cell lines", "assay": "MTS assay, values averaged or stated over the CaP cell lines", "format": "cell-based", "conditions": "apoptotic mechanism", "procedure": "(§1) DU145, LNCaP, PC3, and MCF-7 cells were obtained from the American Type Culture Collection (Manassas, Va.). DU145, PC3, and MCF-7 cells were maintained in Dulbecco's modified Eagle's medium/F-12 supplemented with 5% heat inactivated Fetal Calf Serum and Penicillin/Streptomycin (Invitrogen Life Technologies, Carlsbad, Calif.). LNCaP cells were maintained in RPMI 1640 medium supplemented in the same fashion. Cells were cultured in 75 cm^2 flasks (Falcon, BD Biosciences, Bedford, Mass.) at 37° C. and 5% CO2. For the MTS assay (Example 3), five thousand cells were plated in each well of a 24 well plate (Falcon), were allowed to attach for a 48-hour period in the media described, and changed to a defined medium, (DMEM/F-12 or RPMI1640) supplemented with insulin (BD Biosciences). A 1000× solution of the compound of interest solubilized in DMSO (Sigma, Saint Louis, Mo.) was diluted in the defined media just prior to starting each experiment, and media was refreshed every 48 to 72 hours throughout the experiments.\n. Upon completing five days of treatment, the medium in each well was exchanged for 400 μL of an MTS solution (3-(4,5-dimethylthiazol-2-yl)-5-(3-carboxymethoxyphenyl)-2-(4-sulfophenyl)-2H-tetrazolium, inner salt; O'Toole SA, 2003, Cancer Detect Prev., 2003;27(1):47-54) spiked into media as per the manufacture's instructions (Promega, Madison, Wis.) and incubated for 2 hours at 37° C. before reading the absorbance on the μQuant UV/VIS plate reader, in conjunction with KCjunior Software (Bio-Tek Instruments, Winooski, Vt.) set at 490 nm. All experiments were carried out in quadruplicate, control wells were treated with the carrier DMSO. E2, which is estradiol-17β (Steraloids®, Newport, R.I.) and resveratrol (Sigma) were used as controls. […]"}, "DU145 cells [2]": {"tested_on": "DU145 cells", "assay": "Flow cytometry cell cycle analysis", "format": "cell-based", "conditions": "16 nM", "procedure": "The cells were trypsinized for five minutes, scraped, washed in serum containing media, centrifuged at 300 rpm for 10 minutes, and fixed in ice-cold 70% ethanol for 24 hours at −20° C. The cells were again pelleted and resuspended in buffer containing nine parts 0.05M Na2HPO4 and one part 25 mM citric acid with 0.1% Triton X-100 (pH 7.8) for 2 hours. Cells were pelleted, resuspended in a buffer ([…], 0.1 N NaCl, 2 mM MgCl2, and 0.1% Triton X-100) containing 20 μg PI and 50 μg/ml RNAse (pH 6.8), and incubated in the dark at room temperature for 30 minutes. Cell cycle distribution and DNA content analysis were assayed according to standard methods with a FACS sorter, FACScan™ flow cytometer (Becton Dickinson, Mountain View, Calif.), and analyzed by the Cell Cycle Multi-Cycle system (Phoenix Flow System, San Diego, Calif.). Approximately 15,000 single events were collected, and cell-cycle distribution was determined using Modfit LT version 2 software (Verity House, Inc., Topsham, Me.). All analyses were carried out in quadruplicate."}, "ER-β": {"target": "T1, ER-β (Homo sapiens, UniProt Q92731)", "T1 construct": "purchased Pan Vera, Madison, Wis", "T1 sequence (Q92731 whole entry)": "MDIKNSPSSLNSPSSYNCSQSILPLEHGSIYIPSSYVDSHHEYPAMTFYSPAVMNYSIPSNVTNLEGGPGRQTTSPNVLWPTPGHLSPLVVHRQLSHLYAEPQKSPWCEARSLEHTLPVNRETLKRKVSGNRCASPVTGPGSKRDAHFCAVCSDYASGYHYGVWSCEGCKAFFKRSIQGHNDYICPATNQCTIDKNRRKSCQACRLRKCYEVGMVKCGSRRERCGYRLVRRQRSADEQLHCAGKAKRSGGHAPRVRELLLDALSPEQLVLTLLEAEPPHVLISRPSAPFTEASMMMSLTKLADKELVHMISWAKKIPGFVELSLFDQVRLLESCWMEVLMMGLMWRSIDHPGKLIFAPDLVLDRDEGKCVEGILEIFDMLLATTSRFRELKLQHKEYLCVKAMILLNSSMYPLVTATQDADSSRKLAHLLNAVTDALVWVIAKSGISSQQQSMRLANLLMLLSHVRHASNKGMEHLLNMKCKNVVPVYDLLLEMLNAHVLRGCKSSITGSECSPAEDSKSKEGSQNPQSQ", "assay": "Estrogen receptor relative binding affinity assay, fluorescence polarization, ER-β", "procedure": "All assays were carried out as per the manufacture's instructions with the following modifications."}, "PC3": {"tested_on": "PC3", "assay": "MTS cell viability assay in PC3", "format": "cell-based", "procedure": "as §1\n(§2) Cell viability assays were carried out with five logs of concentration between 0.1 nM and 1 μM for APVE2, including controls in three prostate cancer cell lines (DU145, LNCaP, and PC3, and in a breast cancer cell line (MCF-7). Upon completing five days of treatment, the medium in each well was exchanged for 400 μL of an MTS solution (3-(4,5-dimethylthiazol-2-yl)-5-(3-carboxymethoxyphenyl)-2-(4-sulfophenyl)-2H-tetrazolium, inner salt; O'Toole SA, 2003, Cancer Detect Prev., 2003;27(1):47-54) spiked into media as per the manufacture's instructions (Promega, Madison, Wis.) and incubated for 2 hours at 37° C. before reading the absorbance on the μQuant UV/VIS plate reader, in conjunction with KCjunior Software (Bio-Tek Instruments, Winooski, Vt.) set at 490 nm. All experiments were carried out in quadruplicate, control wells were treated with the carrier DMSO. E2, which is estradiol-17β (Steraloids®, Newport, R.I.) and resveratrol (Sigma) were used as controls. […] EC50 values were calculated with GraphPad Prism software (GraphPad Software Inc., San Diego, Calif.)."}, "DU145 cells [3]": {"tested_on": "DU145 cells", "assay": "ER competition study, MTS assay with E2 as the competitor", "conditions": "DU145, co- or 1 hour pre-treatment with 1 μM E2"}, "LNCaP": {"tested_on": "LNCaP", "assay": "MTS cell viability assay in LNCaP", "format": "cell-based", "procedure": "(§3) DU145, LNCaP, PC3, and MCF-7 cells were obtained from the American Type Culture Collection (Manassas, Va.). DU145, PC3, and MCF-7 cells were maintained in Dulbecco's modified Eagle's medium/F-12 supplemented with 5% heat inactivated Fetal Calf Serum and Penicillin/Streptomycin (Invitrogen Life Technologies, Carlsbad, Calif.). LNCaP cells were maintained in RPMI 1640 medium supplemented in the same fashion. Cells were cultured in 75 cm^2 flasks (Falcon, BD Biosciences, Bedford, Mass.) at 37° C. and 5% CO2. […]\nas §2, with “nm.” for “nm. All experiments were carried out in quadruplicate, control wells were treated with the carrier DMSO. E2, which is estradiol-17β (Steraloids®, Newport, R.I.) and resveratrol (Sigma) were used as controls.”"}, "DU145 cells [4]": {"tested_on": "DU145 cells", "assay": "Annexin-V-FITC/PI apoptosis assay", "format": "cell-based", "conditions": "16 nM, 4th and 5th days", "procedure": "Apoptosis was assessed with the annexin-V-FITC apoptosis detection kit (Oncogene Research Products, Boston, Mass.) as per the manufacturer's instructions with E2 and camptothecin (Calbiochem, San Diego, Calif.) as negative and positive controls respectively. Briefly, cells were lifted at the appropriate time points as described above and pelleted. Cells were then resuspended in ice cold binding buffer, and doubly stained with Annexin-V-fluorescein isothiocyanate and propidium iodide (PI) and analyzed within two hours on the FACScan™ flow cytometer (Becton Dickinson) and the Cell Cycle Multi-Cycle system (Phoenix Flow System)."}, "NCR nude mice": {"tested_on": "NCR nude mice", "conditions": "5 to 40 mg/kg/day bolus IM injection, 40-day period", "procedure": "Doses included 5 to 40 mg/kg/day bolus IM injection. Toxicity effects were gauged based on changes in animal weight and gross analysis of specific organs including liver, lung, prostate, brain, spleen, heart, and kidney, collected, and fixed in paraffin sections."}, "MCF-7": {"tested_on": "MCF-7", "assay": "MTS cell viability assay in MCF-7", "format": "cell-based", "conditions": "MCF-7, data not shown", "procedure": "as §3\nas §2, with “nm.” for “nm. All experiments were carried out in quadruplicate, control wells were treated with the carrier DMSO. E2, which is estradiol-17β (Steraloids®, Newport, R.I.) and resveratrol (Sigma) were used as controls.”"}}, "note": "“Also recorded” adds a separate entry of the source."}
{"smiles": "C[C@]12CC[C@@H]3c4ccc(O)cc4CC[C@H]3[C@@H]1CC[C@@]2(O)/C=C\\c1ccc(N)cc1", "note": "[APVE2, 17α-20Z-21-[(4-amino)phenyl]-19-norpregna-1,3,5(10),20-tetraene-3,17β-diol]", "values": [{"measurement": "level of cell death", "setting": "[1]", "value": "> 90", "unit": "%"}, {"measurement": "increase in G2/M accumulation", "setting": "DU145 cells [2]", "value": "over 4 fold"}, {"measurement": "G1/G0 phase, compared to non-treated controls", "setting": "DU145 cells [2]; day 2-3", "value": 135, "unit": "%"}, {"measurement": "G2/M, compared to non-treated controls", "setting": "DU145 cells [2]; day 3", "value": "no change"}, {"measurement": "S phase, decrease to, compared to non-treated controls", "setting": "DU145 cells [2]; day 3", "value": 32, "unit": "%"}, {"measurement": "G1/G0, decrease to, over non-treated controls", "setting": "DU145 cells [2]; day 4", "value": 48, "unit": "%"}, {"measurement": "S phase, over non-treated controls", "setting": "DU145 cells [2]; day 4", "value": 73, "unit": "%"}, {"measurement": "G2/M arrest, over non-treated controls", "setting": "DU145 cells [2]; day 4-5", "value": 420, "unit": "%"}, {"measurement": "loss of G1", "setting": "DU145 cells [2]; four to five days", "value": "over 48%"}, {"measurement": "loss in S phase", "setting": "DU145 cells [2]; second and third day", "value": "up to 68%"}, {"measurement": "preference for ER-β over ER-α", "setting": "ER-β", "value": 7, "unit": "fold"}, {"measurement": "EC50", "setting": "ER-β; fluorescence polarization, 25° C., 2 hours", "value": 250, "unit": "nM"}, {"measurement": "ER-β % RBA", "setting": "ER-β; ratio of EC50 values as compared to E2", "value": 6.2, "unit": "%"}, {"measurement": "ER-α/ER-β", "setting": "ER-β; ratio of RBAs", "value": 0.14}, {"measurement": "EC50", "setting": "PC3; Homo sapiens, PC-3, 120 h, PC3, five day treatment, read-out: EC50 (cell death, MTS)", "value": 2.7, "unit": "nM"}, {"measurement": "increase in cell proliferation over non-treated controls", "setting": "PC3; PC3, 1 nM", "value": 20, "unit": "%"}, {"measurement": "decrease in cell number", "setting": "PC3; PC3, 5 days of treatment at 1 μM", "value": "81±0.8", "unit": "%"}, {"measurement": "reversal of cytotoxicity of 16 nM APVE2 by E2", "setting": "DU145 cells [3]", "value": "not effected; also recorded: not reversed"}, {"measurement": "decrease in cell number", "setting": "LNCaP; 5 days of treatment at 1 μM", "value": "69±2.3", "unit": "%"}, {"measurement": "EC50", "setting": "LNCaP; Homo sapiens, 120 h, five day treatment, read-out: EC50 (cell death, MTS)", "value": 1.4, "unit": "nM"}, {"measurement": "cells staining heavily with both dyes (late stage apoptosis)", "setting": "DU145 cells [4]", "value": "approximately 76%"}, {"measurement": "general toxicity (animal weight, gross analysis of organs)", "setting": "NCR nude mice", "value": "No apparent detrimental effects"}, {"measurement": "cell death", "setting": "MCF-7", "value": "did induce cell death"}, {"measurement": "proliferation / growth response", "setting": "MCF-7", "value": "no growth response; also recorded: did not cause an increase in proliferation"}]}
